# Columns and labels:
# Assay type in all cases: functional
# [1] = test system: Aeromonas sobria; assay: In vitro synergistic activity against Aeromonas sobria (Asb A, OXA-12, Asb M); note: test concentration or dose not given here
# [2] = test system: Escherichia coli; assay: In vitro synergistic activity against Escherichia coli C600N + (Imi-1)
# [3] = test system: Escherichia coli; assay: In vitro synergistic activity against Escherichia coli C600N + (L1)
# [4] = test system: Escherichia coli; assay: In vitro synergistic activity against Escherichia coli C600N + (MIR-1)
# [5] = test system: Escherichia coli; assay: In vitro synergistic activity against Escherichia coli C600N + (OXA-10) {PSE-2}
# [6] = test system: Escherichia coli; assay: In vitro synergistic activity against Escherichia coli C600N + (PSE-1)
# [7] = test system: Escherichia coli; assay: In vitro synergistic activity against Escherichia coli C600N + (SHV-1)
# [8] = test system: Escherichia coli; assay: In vitro synergistic activity against Escherichia coli C600N + (SHV-4)
# [9] = test system: Escherichia coli; assay: In vitro synergistic activity against Escherichia coli C600N + (Sme-1)
# [10] = test system: Escherichia coli; assay: In vitro synergistic activity against Escherichia coli C600N + (TEM-1)
# [11] = test system: Escherichia coli; assay: In vitro synergistic activity against Escherichia coli C600N + (TEM-10)
# [12] = test system: Escherichia coli; assay: In vitro synergistic activity against Escherichia coli C600N + (ampR ampC); note: test concentration or dose not given here
# [13] = test system: Escherichia coli; assay: In vitro synergistic activity against Escherichia coli GC 6266 clinical isolate
# [14] = test system: Escherichia coli; assay: In vitro synergistic activity against Escherichia coli GC6265 (TEM-1)
# [15] = test system: Klebsiella aerogenes; assay: In vitro synergistic activity against Enterobacter aerogenes GC 6268 clinical isolate; note: test concentration or dose not given here
# [16] = test system: Escherichia coli; assay: In vitro synergistic activity against Escherichia coli 300 (no beta-lactamase, imp mutant)
# [17] = test system: Escherichia coli; assay: In vitro synergistic activity against Escherichia coli 300 + (TEM-1)
# [18] = test system: Escherichia coli; assay: In vitro synergistic activity against Escherichia coli 300 + (ampR ampC); note: test concentration or dose not given here
# [19] = test system: Escherichia coli; assay: In vitro synergistic activity against Escherichia coli 4100 (no beta-lactamase)
# [20] = test system: Escherichia coli; assay: In vitro synergistic activity against Escherichia coli ATCC 25922 (no beta-lactamase); note: test concentration or dose not given here
# [21] = test system: Escherichia coli; assay: In vitro synergistic activity against Escherichia coli ATCC 35218 (TEM-1)
# [22] = test system: Escherichia coli; assay: In vitro synergistic activity against Escherichia coli C600N (no beta-lactamase)
# [23] = test system: Escherichia coli; assay: In vitro synergistic activity against Escherichia coli C600N + (IRT-2); note: test concentration or dose not given here
# [24] = test system: Enterobacter cloacae; assay: In vitro synergistic activity against Enterobacter cloacae (Imi-1+AmpC)
# [25] = test system: Enterobacter cloacae; assay: In vitro synergistic activity against Enterobacter cloacae SC12629 (AmpC inducible); note: test concentration or dose not given here
# [26] = test system: Klebsiella pneumoniae; assay: In vitro synergistic activity against Klebsiella pneumoniae GC 6269 clinical isolate; note: test concentration or dose not given here
# [27] = test system: Klebsiella pneumoniae; assay: In vitro synergistic activity against Klebsiella pneumoniae (ACT-1 + 3 blas, IPM=S); note: test concentration or dose not given here
# [28] = test system: Pseudomonas aeruginosa; assay: In vitro synergistic activity against Pseudomonas aeruginosa Ps505A1 (AmpC derepressed); note: test concentration or dose not given here
# [29] = test system: Serratia marcescens; assay: In vitro synergistic activity against Serratia marcescens GC 4132 (Amp C); note: test concentration or dose not given here
# [30] = test system: Staphylococcus aureus; assay: In vitro synergistic activity against Staphylococcus aureus (PC1); note: test concentration or dose not given here
# [31] = test system: Escherichia coli; assay: In vitro synergistic activity against Escherichia coli C600N + (P99)
# [32] = test system: Stenotrophomonas maltophilia; assay: In vitro synergistic activity against Stenotrophomonas maltophilia 1712(L1); note: test concentration or dose not given here
# [33] = test system: Klebsiella pneumoniae; assay: In vitro synergistic activity against Klebsiella pneumoniae KC2 (TEM-10); note: test concentration or dose not given here
# [34] = test system: Escherichia coli; assay: In vitro synergistic activity against Escherichia coli GC6267 clinical isolate
# [35] = test system: Escherichia coli; assay: In vitro synergistic activity against Escherichia coli 4100 + (CCRA)
SMILES,MIC [1] [µg/mL],MIC [2] [µg/mL],MIC [3] [µg/mL],MIC [4] [µg/mL],MIC [5] [µg/mL],MIC [6] [µg/mL],MIC [7] [µg/mL],MIC [8] [µg/mL],MIC [9] [µg/mL],MIC [10] [µg/mL],MIC [11] [µg/mL],MIC [12] [µg/mL],MIC [13] [µg/mL],MIC [14] [µg/mL],MIC [15] [µg/mL],MIC [16] [µg/mL],MIC [17] [µg/mL],MIC [18] [µg/mL],MIC [19] [µg/mL],MIC [20] [µg/mL],other results
CCN1CCN(C(=O)NC(C(=O)N[C@@H]2C(=O)N3[C@@H]2SC(C)(C)[C@@H]3C(=O)[O-])c2ccccc2)C(=O)C1=O.C[C@]1(COC(=O)Cc2ccc(O)c(O)c2)[C@H](C(=O)[O-])N2C(=O)/C(=C/c3ccccn3)C2S1(=O)=O.[Na+].[Na+] (stereo not given in full),1,8,64,8,2,2,2,2,8,2,2,16,16,4,64,< 0.006,1,2,< 0.06,1,MIC [21]: 1 µg/mL; MIC [22]: 1 µg/mL; MIC [23]: 2 µg/mL; MIC [24]: 16 µg/mL; MIC [25]: 64 µg/mL; MIC [26]: 8 µg/mL; MIC [27]: 32 µg/mL; MIC [28]: 2 µg/mL; MIC [29]: 4 µg/mL; MIC [30]: 1 µg/mL; MIC [31]: 16 µg/mL; MIC [32]: > 64 µg/mL; MIC [33]: 4 µg/mL; MIC [34]: 16 µg/mL; MIC [35]: > 64 µg/mL
CC(C)(O/N=C(\C(=O)N[C@@H]1C(=O)N2C(C(=O)[O-])=C(C[n+]3ccccc3)CS[C@H]12)c1csc(N)n1)C(=O)O [CEFTAZIDIME],< 0.06,1,32,64,0.12,0.25,0.5,> 64,0.5,0.12,64,64,0.25,< 0.06,> 64,< 0.06,< 0.06,4,< 0.06,< 0.06,MIC [21]: < 0.06 µg/mL; MIC [22]: 0.12 µg/mL; MIC [23]: 0.25 µg/mL; MIC [24]: 0.5 µg/mL; MIC [25]: > 64 µg/mL; MIC [26]: 0.5 µg/mL; MIC [27]: > 64 µg/mL; MIC [28]: 32 µg/mL; MIC [29]: 0.25 µg/mL; MIC [30]: 4 µg/mL; MIC [31]: 64 µg/mL; MIC [32]: > 64 µg/mL; MIC [33]: 64 µg/mL; MIC [34]: 0.25 µg/mL; MIC [35]: > 64 µg/mL

# — ChEMBL document CHEMBL1131794, “The synthesis and evaluation of 6-alkylidene-2'beta-substituted penam sulfones as beta-lactamase inhibitors” (Bioorg Med Chem Lett, 1999)
